Assays:
Format in all cases: physicochemical
[1] = Absorption spectrum of toluene solution (maximum absorption, gram absorption coefficient)
Method: A toluene solution of the compound obtained in this way had maximum absorption at 734.0 nm, and the gram absorption coefficient thereof was 1.21×10^5 mL/g·cm. The absorption spectrum chart thereof is illustrated in FIG. 1.

[2] = Visible light transmittance of chloroform solution; settings: spectrum converted to transmittance 10% at near-infrared maximum absorption wavelength
Method: The visible light transmittance of the phthalocyanine-based compound of the present invention and the comparative example compounds was measured by the following measurement method.
Each of the phthalocyanine compounds ([…]) and approximately 90 mL of chloroform were put into a 100 mL volumetric flask, and the solution in the flask was irradiated with ultrasonic waves for 30 minutes and left to stand for 2 hours at room temperature. Then, chloroform was added thereto such that the meniscus of the solution matched up with the calibration mark on the volumetric flask, thereby preparing a 10 mg/L phthalocyanine solution. The prepared solution was put into a 1 cm×1 cm cell made of PYREX (registered trademark), and the absorption spectrum thereof was measured using a spectrophotometer (produced by Hitachi, Ltd.: Spectrophotometer U-3500).
The absorption spectrum measured as above was converted such that the absorbance became 1.0, that is, the transmittance became 10% at the maximum absorption wavelength in a near-infrared range, thereby obtaining a transmission spectrum. […] At 460 nm, the transmittance of the compound of the present invention was approximately the same as the transmittance of Comparative Examples 1 and 2.

[3] = Solubility in organic solvent (cyclopentanone); settings: about 10 wt % dispersion, room temperature, 0.2 μm filter; no residue = 10 wt % or more
Method: The solubility of the phthalocyanine compound with respect to cyclopentanone was measured by the following method.
Cyclopentanone was added to about 1 g of the phthalocyanine compound such that the total weight thereof became about 10 g, and the obtained solution was irradiated with ultrasonic waves for about 30 minutes and then stirred for 2 hours at room temperature, thereby preparing a dispersion liquid of about 10 wt %.
The dispersion liquid was filtered through a membrane filter (0.2 μm), the substance obtained by filtration was dried for 1 hour in a drier at 60° C., and then the weight of the substance obtained by filtration was measured.
The solubility of the phthalocyanine compound in a solvent is expressed by the following equation. Solubility (wt %)=(W0−W1)/W0
W0 represents the correct weight of the phthalocyanine not yet being treated, and W1 represents the weight of the substance obtained by filtration (dissolved phthalocyanine compound residue) having been dried.

- maximum absorption [1]: 737.5 nm
- gram absorption coefficient ([1]; at maximum absorption): 105000 mL/g/cm
- Transmittance (%) 460 nm [2]: 97.8%
- Transmittance (%) 610 nm [2]: 87.9%
- Solubility to cyclopentanone (wt %) [3]: ≤1% wt %
SMILES: COCCCCCCCCc1ccc(CCCCCCCCOC)c2c1-c1nc-2nc2[n-]c(nc3nc(nc4[n-]c(n1)c1c(CCCCCCCCOC)ccc(CCCCCCCCOC)c41)-c1c(CCCCCCCCOC)ccc(CCCCCCCCOC)c1-3)c1c(CCCCCCCCOC)ccc(CCCCCCCCOC)c21.[O]=[V+2] [Comparative Example Compound (b), reference compound]

From patent US11015061B2, “Phthalocyanine-based compound and uses of same” (YAMAMOTO CHEMICALS, INC., priority 2017, dated 2021)
